According to US20200339544A1 (JOINT STOCK COMPANY "BIOCAD", priority 2017, published 2020):
Where two headings read alike, the source gives them in different places.

Assays:
[1] = Chemical stability in simulated gastric fluid (SGF); format: physicochemical; details: SGF without enzymes, pH 1,4; 10 μm; 2 hours at 37° C.; substance amount remaining
How it was run: (§1)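 Compound at 10 μm (diluted from 10 mM DMSO stock) incubated 2 h at 37° C in enzyme-free SGF, pH=1,4, or enzyme-free SIF, pH=6.5. HPLC peak areas before and after incubation give % compound remaining.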

[2] = Chemical stability in simulated intestinal fluid (SIF); format: physicochemical; details: SIF without enzymes, pH 6.5; 10 μm; 2 hours at 37° C.; substance amount remaining
How it was run: as §1

WT EGFR (Wild-Type EGFR) = molecular target: T1, WT EGFR (Wild-Type EGFR) (Homo sapiens, UniProt P00533); experiment: Inhibition of WT EGFR kinase activity (ADP-Glo); format: biochemical
T1 construct: purchased SignalChem
How it was run: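 Luminescent ADP-Glo readout was used for both wild-type and L858R/T790M EGFR, each run 180 minutes at 37° C. Reactions used a solution of 50 μM ATP with 0.5 mg/mL peptide substrate. Four-parameter logistic curves gave IC50.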

[3] = test system: A549 (lung adenocarcinoma, WT); experiment: Antiproliferative activity on A549 cells (Alamar Blue); format: cell-based; details: Homo sapiens, antiproliferative test
How it was run: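 Viability read by Alamar Blue fluorescence (λEx 540, λEm 590 nm) 3-5 h after dye addition, following 72 h compound treatment at 37° C in 2% FBS RPMI-1640, ≤1% DMSO. Seeding 5*10^3 cells/well, 16-18 h attachment. Four-parameter logistic model gave IC50.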

[4] = test system: HCC827 (lung adenocarcinoma, SM, exon19delE746-A750); experiment: Antiproliferative activity on HCC827 cells (Alamar Blue); format: cell-based; details: Homo sapiens, antiproliferative test
How it was run: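 HCC827 cells (EGFR exon19del E746-A750), 10×10^3/well, attached 16–18 h, then exposed to compounds for 72 h at 37 °C in RPMI-1640 with 2% FBS, ≤1% DMSO. Viability by Alamar Blue fluorescence (ex 540/em 590 nm) after 3–5 h; IC50 by four-parameter logistic fit.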

[5] = test system: H1975 (lung adenocarcinoma, DM, L828R/T790M); experiment: Antiproliferative activity on H1975 cells (Alamar Blue); format: cell-based; details: for IC50: Homo sapiens, NCI-H1975, H1975 cells; for SI IC50(A549)/IC50(DM): selectivity index, A549 vs H1975 cells
How it was run: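 IC50 was fitted with a four-parameter logistic model to Alamar Blue fluorescence (540/590 nm), read 3-5 h after dye addition. Before that, compounds acted on attached H1975 cells, 15*10^3 per well in 2% FBS RPMI-1640, for 72 h at 37 °C, DMSO no more than 1%.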

[6] = average values obtained in several tests, Table 16, read-out: H1975 (DM) IC50
[7] = antiproliferative test, Table 15, read-out: IC50 H1975 (DM)

T1 sequence (P00533 25-1210): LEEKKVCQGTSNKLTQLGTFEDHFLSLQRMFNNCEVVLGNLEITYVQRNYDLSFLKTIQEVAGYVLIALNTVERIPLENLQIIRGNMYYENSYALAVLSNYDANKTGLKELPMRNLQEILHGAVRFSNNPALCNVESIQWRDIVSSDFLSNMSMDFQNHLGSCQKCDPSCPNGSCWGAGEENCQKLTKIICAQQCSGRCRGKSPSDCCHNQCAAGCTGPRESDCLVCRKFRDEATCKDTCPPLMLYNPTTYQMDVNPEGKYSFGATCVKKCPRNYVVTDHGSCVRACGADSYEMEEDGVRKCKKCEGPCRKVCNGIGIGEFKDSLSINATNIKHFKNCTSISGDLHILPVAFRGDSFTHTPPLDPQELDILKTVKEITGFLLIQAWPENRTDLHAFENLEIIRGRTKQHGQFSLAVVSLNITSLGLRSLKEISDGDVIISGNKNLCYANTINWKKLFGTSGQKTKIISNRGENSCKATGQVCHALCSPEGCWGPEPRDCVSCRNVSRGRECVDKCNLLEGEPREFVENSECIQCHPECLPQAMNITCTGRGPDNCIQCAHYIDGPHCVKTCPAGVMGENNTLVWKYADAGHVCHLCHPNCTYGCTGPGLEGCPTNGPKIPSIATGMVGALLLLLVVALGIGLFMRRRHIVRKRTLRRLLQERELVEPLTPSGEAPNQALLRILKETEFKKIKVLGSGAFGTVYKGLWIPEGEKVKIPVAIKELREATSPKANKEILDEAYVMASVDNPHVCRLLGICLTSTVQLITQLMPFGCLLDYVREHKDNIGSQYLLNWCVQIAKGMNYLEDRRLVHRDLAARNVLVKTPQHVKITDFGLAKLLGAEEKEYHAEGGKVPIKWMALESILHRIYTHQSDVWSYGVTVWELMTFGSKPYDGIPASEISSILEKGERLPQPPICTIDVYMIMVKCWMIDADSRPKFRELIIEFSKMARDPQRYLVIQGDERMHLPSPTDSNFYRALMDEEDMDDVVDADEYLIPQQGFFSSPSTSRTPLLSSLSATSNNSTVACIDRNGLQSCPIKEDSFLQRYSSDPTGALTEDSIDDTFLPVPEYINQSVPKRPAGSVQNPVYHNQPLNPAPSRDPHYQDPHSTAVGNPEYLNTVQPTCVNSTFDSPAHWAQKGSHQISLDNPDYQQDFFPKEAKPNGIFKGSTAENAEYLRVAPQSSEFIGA

| Structure (SMILES) | Stability in SGF, % [1] | Stability in SIF, % [2] | IC50 (WT EGFR (Wild-Type EGFR)) | IC50 [3] | IC50 [4] | IC50 [5, 6] | IC50 [5, 7] | SI IC50(A549)/IC50(DM) [5] |
| --- | --- | --- | --- | --- | --- | --- | --- | --- |
| C=CC(=O)Nc1cc(Nc2nccc(C(=O)c3ccc(N(CC)CC)cc3)n2)c(OC)cc1N(C)CCN(C)C [EGFR_3365_72, N-(5-((4-(4-(diethylamino)benzoyl)pyrimidin-2-yl)amino)-2-((2-(dimethylamino)ethyl)(methyl)amino)-4-methoxyphenyl)acrylamide] | 100.0% | 91.5% | 0.0559 µM | 10.7 µM | 0.0135 µM | 0.0115 µM | 0.0115 µM | 932 |
| C=CC(=O)Nc1cc(Nc2nccc(C(=O)c3ccc(N(C)C)cc3)n2)c(OC)cc1N(C)CCN(C)C [EGFR_3365_73, N-(5-((4-(4-(dimethylamino)benzoyl)pyrimidin-2-yl)amino)-2-((2-(dimethylamino)ethyl) (methyl)amino)-4-methoxyphenyl)acrylamide] | 100.0% | 100.0% | 0.0327 µM | 16 µM | 0.00447 µM | 0.0095 µM | 0.0103 µM | 1678 |
| C=CC(=O)Nc1cc(Nc2cc(C(=O)c3ccc(-c4cnn(C)c4)cc3)ccn2)c(OC)cc1N(C)CCN(C)C [EGFR_3365_85, N-(2-((2-(dimethylamino)ethyl)(methyl)amino)-4-methoxy-5-((4-(4-(1-methyl-1H-pyrazol-4-yl)benzoyl)pyridin-2-yl)amino)phenyl) acrylamide] | 100.0% | 98.4% | 0.06 µM | 1.41 µM | 0.018 µM | 0.138 µM | 0.138 µM | 10 |
